Source: ChEMBL document CHEMBL1141822, “Tenellic acids A-D: new bioactive diphenyl ether derivatives from the aquatic fungus Dendrospora tenella” (1999)
Calls of active or inactive are those of the source. The rule behind the calls is not given here.

How the values were obtained:
[1] = system: Bacillus subtilis; assay: Antimicrobial activity against Bacillus subtilis ATCC 6051 at 200 ug/disk; format: functional; details: read-out: IZ
[2] = system: Candida albicans; assay: Antimicrobial activity against Candida albicans ATCC 14053 at 200 ug/disk; format: functional, organism-based
[3] = system: Staphylococcus aureus; assay: Antimicrobial activity against Staphylococcus aureus ATCC 29213 at 200 ug/disk; format: functional; details: read-out: IZ

Compound | zone of inhibition at 200 µg/disc [1] | Activity [2] | zone of inhibition at 200 µg/disc [3]
COc1c(C(CC(C)C)OC)ccc(Oc2c(O)cc(C)cc2C=O)c1C(=O)O (stereo not given) [TENELLIC ACID A] | 11 mm | inactive | –
COc1c(C(O)CC(C)C)ccc(Oc2c(O)cc(C)cc2C=O)c1C(=O)O (stereo not given) [TENELLIC ACID B] | 9 mm | inactive | –
COc1c(C(CC(C)C)OC(C)=O)ccc(Oc2c(O)cc(C)cc2C=O)c1C(=O)O (stereo not given) [TENELLIC ACID C] | 12 mm | inactive | 14 mm
COc1c(C(CC(C)C)OCC(C)C)ccc(Oc2c(O)cc(C)cc2C=O)c1C(=O)O (stereo not given) [TENELLIC ACID D] | 29 mm | inactive | 25 mm
